± gives the standard deviation of the averaged measurements.
How the values were obtained:
ETOPOSIDE = compound: COc1cc([C@@H]2c3cc4c(cc3[C@@H](O[C@@H]3O[C@@H]5CO[C@@H](C)O[C@H]5[C@H](O)[C@H]3O)[C@H]3COC(=O)[C@H]23)OCO4)cc(OC)c1O [ETOPOSIDE]; test: surviving fraction relative to DMSO-only wells; higher = less growth inhibition; details: exposure time: 5 days
How it was run: (§1)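 Inhibitors were tested at 0.5, 1, 5, 10, 50, 100, 500 and 1000 nM, applied continuously for five days beginning 24 hours after log-phase tumour cells were seeded at 250–500 per well in 384-well plates. CellTiter-Glo luminescence served as the viability measure, expressed as surviving fraction against the median of DMSO-only wells. Each line, screened three times, was kept only with replicate Pearson r >0.7 and median Z' >0.3.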

METHOTREXATE = compound: CN(Cc1cnc2nc(N)nc(N)c2n1)c1ccc(C(=O)N[C@@H](CCC(=O)O)C(=O)O)cc1 [METHOTREXATE]; test: as above; details: exposure time: 5 days
How it was run: as §1

Test System	surviving fraction (ETOPOSIDE; 0.5 nM)	surviving fraction (ETOPOSIDE; 1 nM)	surviving fraction (ETOPOSIDE; 5 nM)	surviving fraction (ETOPOSIDE; 10 nM)	surviving fraction (ETOPOSIDE; 50 nM)	surviving fraction (ETOPOSIDE; 100 nM)	surviving fraction (ETOPOSIDE; 500 nM)	surviving fraction (ETOPOSIDE; 1000 nM)	surviving fraction (METHOTREXATE; 0.5 nM)	surviving fraction (METHOTREXATE; 1 nM)	surviving fraction (METHOTREXATE; 5 nM)	surviving fraction (METHOTREXATE; 10 nM)	surviving fraction (METHOTREXATE; 50 nM)	surviving fraction (METHOTREXATE; 100 nM)	surviving fraction (METHOTREXATE; 500 nM)	surviving fraction (METHOTREXATE; 1000 nM)
MDAMB468 BREAST	1.1 ± 0.11	1.06 ± 0.013	1.14 ± 0.065	1.13 ± 0.038	1.15 ± 0.12	1.25 ± 0.089	1.09 ± 0.072	0.937 ± 0.19	1.12 ± 0.046	1.09 ± 0.072	1.11 ± 0.042	1.12 ± 0.025	0.263 ± 0.015	0.083 ± 0.0027	0.0627 ± 0.0057	0.065 ± 0.001
CADOES1 SOFT TISSUE	0.948 ± 0.12	0.908 ± 0.12	0.966 ± 0.04	0.97 ± 0.024	0.819 ± 0.048	0.977 ± 0.023	0.735 ± 0.053	0.528 ± 0.069	0.973 ± 0.11	1.02 ± 0.14	0.869 ± 0.052	0.672 ± 0.12	0.288 ± 0.013	0.229 ± 0.0093	0.226 ± 0.021	0.242 ± 0.011
HT1080 SOFT TISSUE	1.02 ± 0.028	0.995 ± 0.026	0.951 ± 0.02	0.94 ± 0.015	0.616 ± 0.046	0.467 ± 0.0051	0.217 ± 0.021	0.222 ± 0.0056	1.04 ± 0.021	1.06 ± 0.029	1.02 ± 0.04	0.493 ± 0.043	0.253 ± 0.023	0.257 ± 0.0082	0.259 ± 0.0081	0.265 ± 0.03
SKBR3 BREAST	1.07 ± 0.027	1.06 ± 0.099	1.1 ± 0.15	1.03 ± 0.12	1.12 ± 0.11	1.05 ± 0.084	0.66 ± 0.068	0.478 ± 0.12	1.02 ± 0.024	1.11 ± 0.027	1.11 ± 0.1	1.04 ± 0.12	0.784 ± 0.13	0.629 ± 0.038	0.503 ± 0.1	0.512 ± 0.13
H23 LUNG	0.988 ± 0.067	1.07 ± 0.053	1.01 ± 0.033	1.04 ± 0.056	1.11 ± 0.03	1.07 ± 0.04	0.565 ± 0.019	0.509 ± 0.02	1.06 ± 0.054	0.996 ± 0.068	1.01 ± 0.062	0.461 ± 0.084	0.254 ± 0.015	0.236 ± 0.022	0.236 ± 0.016	0.222 ± 0.014
SJSA1 BONE	1.04 ± 0.022	1.04 ± 0.058	1.06 ± 0.036	1.01 ± 0.024	1.05 ± 0.03	1.02 ± 0.076	0.71 ± 0.0095	0.503 ± 0.0085	1.62 ± 0.029	1.63 ± 0.05	1.61 ± 0.075	1.67 ± 0.14	1.7 ± 0.065	1.79 ± 0.12	1.64 ± 0.1	1.88 ± 0.062
22RV1 PROSTATE	1.03 ± 0.084	1 ± 0.083	0.928 ± 0.059	0.939 ± 0.023	0.922 ± 0.046	0.747 ± 0.047	0.42 ± 0.034	0.345 ± 0.03	1.06 ± 0.075	0.984 ± 0.11	0.946 ± 0.15	0.964 ± 0.12	0.452 ± 0.016	0.325 ± 0.013	0.285 ± 0.097	0.279 ± 0.099
HS578T BREAST	0.878 ± 0.18	0.849 ± 0.12	0.831 ± 0.2	0.789 ± 0.079	0.95 ± 0.11	0.751 ± 0.064	0.59 ± 0.064	0.372 ± 0.029	1.04 ± 0.19	1.17 ± 0.17	1.19 ± 0.2	1.15 ± 0.058	0.518 ± 0.069	0.438 ± 0.012	0.375 ± 0.011	0.418 ± 0.011
HOSMNG BONE	0.958 ± 0.1	0.984 ± 0.056	0.976 ± 0.024	1.01 ± 0.023	1.02 ± 0.021	1.04 ± 0.018	0.956 ± 0.079	0.78 ± 0.021	0.844 ± 0.14	0.864 ± 0.049	0.84 ± 0.047	0.248 ± 0.019	0.212 ± 0.016	0.316 ± 0.011	0.341 ± 0.015	0.353 ± 0.0087
SIHA CERVIX	1.07 ± 0.041	1.036 ± 0.0067	1.08 ± 0.12	1.11 ± 0.069	1.12 ± 0.049	1.16 ± 0.11	0.863 ± 0.058	0.684 ± 0.018	1.05 ± 0.02	1.14 ± 0.048	1.07 ± 0.085	1.1 ± 0.017	0.8 ± 0.014	0.835 ± 0.034	0.787 ± 0.018	0.782 ± 0.014
143B BONE	0.981 ± 0.021	0.993	1.01 ± 0.016	1.03 ± 0.012	1.01 ± 0.012	0.979 ± 0.079	0.484 ± 0.005	0.297	1.06 ± 0.018	1.04 ± 0.016	1.03 ± 0.041	0.471 ± 0.022	0.379 ± 0.033	0.174 ± 0.014	0.085 ± 0.0071	0.0875 ± 0.016
CASKI CERVIX	0.904 ± 0.037	0.934 ± 0.061	0.99 ± 0.035	0.939 ± 0.014	0.876 ± 0.051	0.86 ± 0.0087	0.303 ± 0.019	0.182 ± 0.0059	0.941 ± 0.045	0.892 ± 0.058	0.946 ± 0.073	0.967 ± 0.031	0.533 ± 0.019	0.2303 ± 0.0015	0.192 ± 0.018	0.208 ± 0.027
DU4475 BREAST	0.932 ± 0.028	0.97 ± 0.11	0.848 ± 0.075	0.7 ± 0.089	0.257 ± 0.1	0.146 ± 0.037	0.0573 ± 0.011	0.0397 ± 0.0084	0.815 ± 0.2	0.988 ± 0.11	0.943 ± 0.16	0.933 ± 0.11	1.02 ± 0.049	1.09 ± 0.092	1.03 ± 0.13	1.01 ± 0.032
YAMATO SYNOVIAL	1.3 ± 0.12	1.32 ± 0.063	1.19 ± 0.051	1.22 ± 0.18	1.26 ± 0.018	1.11 ± 0.096	0.636 ± 0.014	0.575 ± 0.031	1.18 ± 0.13	1.05 ± 0.089	1.25 ± 0.17	0.532 ± 0.058	0.685 ± 0.065	0.587 ± 0.05	0.584 ± 0.046	0.604 ± 0.048
A549 LUNG	0.989 ± 0.071	0.99 ± 0.074	0.988 ± 0.026	0.976 ± 0.05	1 ± 0.057	1.09 ± 0.057	0.958 ± 0.048	0.67 ± 0.017	1.06 ± 0.07	1.06 ± 0.043	1.04 ± 0.023	1.06 ± 0.036	0.237 ± 0.0061	0.219 ± 0.0071	0.213 ± 0.0055	0.218 ± 0.0055
SUM149 BREAST	1.16 ± 0.04	1.17 ± 0.061	1.21 ± 0.048	1.13 ± 0.077	0.753 ± 0.044	0.563 ± 0.025	0.156 ± 0.0049	0.153 ± 0.0044	1.05 ± 0.075	1.13 ± 0.12	1.1 ± 0.087	1.06 ± 0.036	0.848 ± 0.074	0.751 ± 0.057	0.746 ± 0.027	0.781 ± 0.058
MCF7 BREAST	0.9 ± 0.049	0.88 ± 0.045	0.867 ± 0.079	0.9 ± 0.037	0.951 ± 0.07	0.935 ± 0.014	0.702 ± 0.051	0.644 ± 0.041	0.973 ± 0.011	0.989 ± 0.05	0.734 ± 0.048	0.587 ± 0.033	0.569 ± 0.011	0.588 ± 0.035	0.573 ± 0.039	0.572 ± 0.024
MDAMB361 BREAST	0.921 ± 0.048	0.848 ± 0.056	0.884 ± 0.055	0.946 ± 0.068	0.958 ± 0.067	0.963 ± 0.091	0.954 ± 0.051	0.972 ± 0.049	0.85 ± 0.13	0.853 ± 0.073	0.8 ± 0.015	0.889 ± 0.062	0.947 ± 0.082	0.879 ± 0.037	0.74 ± 0.045	0.735 ± 0.075
SG28 HEADNECK	1.18 ± 0.046	1.19 ± 0.063	1.13 ± 0.075	1.15 ± 0.044	1.07 ± 0.2	1.09 ± 0.093	1.05 ± 0.029	0.969 ± 0.11	1.06 ± 0.059	1.06 ± 0.02	1.07 ± 0.09	1.14 ± 0.088	1.04 ± 0.017	1.12 ± 0.087	1.123 ± 0.011	0.976 ± 0.084
SCC47 HEADNECK	1.04 ± 0.11	1.05 ± 0.039	1.02 ± 0.025	1.08 ± 0.079	1.11 ± 0.071	1.06 ± 0.084	0.799 ± 0.07	0.575 ± 0.027	1.11 ± 0.097	1.15 ± 0.098	1.06 ± 0.019	0.946 ± 0.15	0.827 ± 0.04	0.814 ± 0.03	0.773 ± 0.033	0.789 ± 0.019

Reference: the supplement of paper PMC6045584
